Counter-ions that a name gives are not always drawn.
How the values were obtained:
D2-Pparg^f/f mice = experiment: Behavioral tests in D2-Pparg f/f mice after intra-dorsal striatal microinfusion; type: in vivo; conditions: UNC 10 μM, 1 μL/side
Method: For intracranial injection, mice were surgically implanted with sterilized guide cannulae in dorsal striatum. Intra-dorsal striatal injection of PDMP (100 μM, 1 μL/injection), pioglitazone (100 μM, 1 μL/injection), UNC (10 μM, 1 μL/injection) was performed 30 min before behavioral test. Mice were intraperitoneally injected with CNO (1 mg/kg/d) before behavioral test.
(§1) Elevated plus maze test (EPMT).
(§2) Light-dark Transition test (LDT).
(§3) Sucrose preference test (SPT).
(§4) Forced swimming test (FST).

[1] = LC-MS of GlcCer levels in dorsal striatum of CRS-induced mice; type: in vivo; conditions: intra-dorsal striatum infusion of pioglitazone, GlcCer or combination
Method: The procedure for the extraction of sphingolipids was established according to the LIPID MAPS protocol with modifications. Briefly, dorsal striatal tissues were added 0.5 mL of MeOH, 0.25 mL of CHCl3 and 7.5 μL of internal standards cocktail (2.5 μM). For sphingolipidomics, 5 μL of internal standards mixture (LM6002, Avanti polar lipids) was added. The mixture was then ultrasonicated for 45 s at room temperature and incubation at 48°C overnight. To avoid potentially interfering glycerolipids, 75 μL of KOH in MeOH (1M) was added, followed by incubation in a heat block at 200 rpm for 2 h at 37 °C. After neutralization, a four-step extraction process was performed to obtain SPL extract for analysis. The supernatant was transferred to a new Eppendorf tube and the resides were added l mL of MeOH and 2 mL of CHCl3, followed by centrifugation at 3800 rpm for 8 min. […] Sphingolipidomics were measured with ultra-high-performance liquid chromatography (UPLC) coupled with hybrid Quadrupole-Orbitrap high resolution mass spectrometry (Q-Exactive-HRMS). […] For […] quantitation, brain tissues were quantified by UPLC-MS/MS using a Q-Exactive-HRMS with UPLC. […] Quantification of […] with various fatty acid chain lengths were achieved using the calibration curve of each GlcCer species with closest number of chain length. […]

PPARγ target genes = experiment: qRT-PCR of PPARγ target genes in PPARγ-overexpressing N2a cells; type: cell-based; conditions: 0.1, 1 and 10 μM
D2-Ugcg^f/f mice = experiment: Behavioral tests in D2-Ugcg f/f mice after intra-dorsal striatal microinfusion; type: in vivo; conditions: pioglitazone 1 μM, 1 μL per side
[2] = system: depression and bipolar disorder; set-up: method as in PMID 30699881; conditions: clinical; ref [10]; cited from earlier work
CRS-induced mice = experiment: Behavioral tests (OFT, EPMT, LDT, SPT, FST) in chronic restraint stress mice, intra-dorsal striatal infusion; type: in vivo
Method: For intracranial injection, mice were surgically implanted with sterilized guide cannulae in dorsal striatum. […] Mice were intraperitoneally injected with CNO (1 mg/kg/d) before behavioral test.
Chronic restraint stress (CRS). For the CRS protocol, male C57BL/6J mice (8-10 weeks old) were obtained from Charles River Laboratories (Beijing, China). Mice were individually placed into well-ventilated 50 mL conical restraint tube (suitable for mice weighing 20-25 g) with multiple holes for 4 h daily between 10:00 AM and 2:00 PM to minimize circadian rhythm variations. The restraint stress procedure was conducted for 14 consecutive days. Then, all behavioral test were performed between 10:00 AM and 18:00 PM.
as §1, §2, §3, §4

PPARγ = system: T1, PPARγ; experiment: PPARγ mRNA, protein and transcriptional activity in dorsal striatum of CRS-induced mice; type: in vivo
T1 construct: from tissue; host or cells: mouse dorsal striatum
Description: Dorsal striatal tissues were processed in accordance with the RNA isolation kit's instructions (RC102/RC112; Vazyme Biotech Co.,Ltd), mRNA was reverse transcribed using HiScript® III All-in-one RT SuperMix (Vazyme Biotech Co.,Ltd), and cDNA was amplified using SYBR Green (Vazyme Biotech Co.,Ltd). The 2^-ΔΔCt method was used to analyze gene expression, and the relative level of the target gene was normalized to Gapdh. The primer sequences can be found in Supplemental materials Table S1.
Brain tissues were cut into small pieces and then centrifuged at 13,000 g for 15 min at 4 °C. Supernatants were collected, and proteins concentrations were determined by BCA assay. Samples were denatured at 95 °C for 5 min and subsequently stored at -80 °C for further use. Protein samples were loaded onto 10% SDS-PAGE and transferred on PVDF membranes. After being blocked with 5% nonfat dry milk in Tris-buffered saline with 0.1% Tween-20 for 1.5 h, the PVDF membranes were incubated with corresponding primary antibodies overnight at 4 °C. Membranes were then incubated with HRP-conjugated secondary antibodies for 1 h at room temperature and measured with chemiluminescence imaging system (ChemiScope; Clinx, China).
Nuclear extracts were prepared from N2a cells using a nuclear extraction kit according to the manufacturer protocol. The binding reaction between PPARγ and PPRE was carried out at 4°C for 16 h using 3 μg of nuclear extracts. The binding activity between PPARγ and PPRE was indicated by the change of optical density (OD) at 405 nm, and an enzyme reaction was measured by HRP-conjugated antibody in complex of PPRE/ PPARγ/antibody.

GCS = system: T2, GCS; experiment: GCS activity in dorsal striatum of CRS-induced mice; type: in vivo; conditions: intra-dorsal striatal PDMP
T2 construct: from tissue; host or cells: mouse dorsal striatum

[3] = system: D2-MSNs in dorsal striatum of D2-Ugcg^f/f mice; experiment: DREADD (AAV-hM3Dq) activation of D2-MSNs, c-Fos and behavioral tests; conditions: CNO 1 mg/kg, i.p.
Method: Open field test (OFT). […] Mice were gently placed in the center and allowed to explore the area for 5 min. The total distance travelled and time spent in the center (20 × 20 cm^2) were recorded using EthoVision version 7.0 software (Noldus Information Technology, Netherlands).
Elevated plus maze test (EPMT). The apparatus consisted of two open arms (30 cm × 5 cm) and two closed arms (30 cm × 5 cm × 15 cm) extending from a central platform (5 cm × 5 cm), elevated 50 cm above the floor. Mice were placed on the central platform facing one of the open arms and allowed to explore the maze for 5 min. Behavior was recorded using a video camera positioned above the maze in conjunction with Anymaze tracking software (Stoelting Co.; Wood Dale, IL, USA).
Forced swimming test (FST). Each mouse was placed individually into a water-filled cylinder maintained at 23-25 °C and allowed to swim for 6 min. The first 2 min were considered an acclimation period, and data from this period were not included in the analysis. During the remaining 4 min, the behavior of the mice was recorded using EthoVision version 7.0 software (Noldus Information Technology, Netherlands).
D2-Cre or D2-Ugcg^f/f mice were bilaterally injected with AAV-hM3Dq into the dorsal striatum (AP +0.8 mm, ML ±1.5 mm, DV -3.0 mm). Following surgery, mice were given 3 weeks to express the virus before starting behavioral tests. Prior to each behavioral test, mice received an injection of Clozapine N-oxide (CNO; 1 mg/kg, i.p.; Sigma-Aldrich, USA) 30 min before the testing session.

[4] = CRS mice, PDMP 100 μM, 1 μL/side
[5] = D2-Ugcg^f/f mice with AAV-hM3Dq

Question: Which “reductions in the OFT, EPMT, LDT, SPT, and FST” value (D2-Pparg^f/f mice) does the source give for `Clc1cccc(N2CCN(CCCOc3ccc4scnc4c3)CC2)c1Cl` [UNC, UNC9995] here?
Answer: Its value is “effectively reversed”.

Question: With `CCc1ccc(CCOc2ccc(CC3SC(=O)NC3=O)cc2)nc1` (centres unmarked) [pioglitazone, Pioglitazone hydrochloride] as the molecule, how does the “GlcCer levels in the dorsal striatum (LC-MS)” value [1] read?
Answer: The value was “did not alter”.

Question: What about the “expression of Adipoq and Leptin” value (PPARγ target genes) of the same molecule?
Answer: The value was “robustly upregulated”.

Question: And the “expression of Angptl4” value (PPARγ target genes)?
Answer: The value was “significantly increased”.

Question: What about the “expression of adipogenesis-related genes (Srebp-1c, Adrp, Fabp4, Fasn, Cd36)” value (PPARγ target genes) of the same molecule?
Answer: The value was “strongly induced”.

Question: And the “anxiety- and depression-like behaviors in the OFT, EPMT, LDT, SPT, and FST” value (D2-Ugcg^f/f mice)?
Answer: The value was “effectively reversed”.

Question: What about the “symptoms of depression and bipolar disorder” value [2] of the same molecule?
Answer: Its value is “proven effective”.

Question: What about the “stress-induced depression-like behaviors (overall)” value (CRS-induced mice; CRS mice, administration of GlcCer, pioglitazone or combined) of the same molecule?
Answer: The value was “reverses”.

Question: What about the “PPARγ mRNA or protein expression” value (PPARγ; intra-dorsal striatum pioglitazone, GlcCer or combination) of the same molecule?
Answer: The value was “neither pioglitazone, GlcCer, nor their combination altered”.

Question: Which results are given for `CCCCCCCCCC(=O)N[C@@H](CN1CCOCC1)[C@@H](O)c1ccccc1.Cl` [PDMP, (-)-L-threo-PDMP hydrochloride]?
Answer: GCS activity in the dorsal striatum (GCS): significantly enhanced; immobility time in the FST (CRS-induced mice; [4]): reduced; sucrose preference in the SPT (CRS-induced mice; [4]): restored; time spent in light area in the LDT (CRS-induced mice; [4]): increased; time spent in open arms in the EPMT (CRS-induced mice; [4]): increased; time spent in the center area in the OFT (CRS-induced mice; [4]): increased; anxiety- and depression-like behaviors following CRS (CRS-induced mice; PDMP 100 μM, 1 μL/side, intra-dorsal striatum): significantly ameliorated; PPARγ activity in the dorsal striatum (PPARγ; PDMP treatment): significantly enhanced; PPARγ mRNA or protein expression (PPARγ; PDMP treatment): did not alter

Question: For `C[N+]1([O-])CCN(C2=Nc3cc(Cl)ccc3Nc3ccccc32)CC1` [CNO, Clozapine-N-oxide], which “expression of c-Fos” value ([3]; AAV-hM3Dq-injected mice) is on record?
Answer: Its value is “significantly increased”.

Question: And the “immobility time in the FST” value [3, 5]?
Answer: Its value is “lower”.

Question: And the “time in the center area in the OFT” value [3, 5]?
Answer: Its value is “more time”.

Question: What about the “time in the light room in the LDT” value [3, 5] of the same molecule?
Answer: Its value is “more time”.

Question: What about the “time in the open arms in the EPMT” value [3, 5] of the same molecule?
Answer: The value was “more time”.

— article PMC12775823, “Glucosylceramide regulates depression through activating peroxisome proliferator-activated receptor gamma in dorsal striatum” (Theranostics, 2026)
